Assay results as given in BindingDB's records for doi:10.1021/acs.jmedchem.6b00538 (University of Lille, 2017).

Target: Fatty-acid amide hydrolase 1 (Rattus norvegicus) (UniProt P97612)
Test: Inhibition of Wistar rat brain homogenate FAAH using [3H]AEA as substrate after 10 mins by liquid scintillation counting method

Sequence of Fatty-acid amide hydrolase 1 (Rattus norvegicus) (P97612 whole entry, looked up): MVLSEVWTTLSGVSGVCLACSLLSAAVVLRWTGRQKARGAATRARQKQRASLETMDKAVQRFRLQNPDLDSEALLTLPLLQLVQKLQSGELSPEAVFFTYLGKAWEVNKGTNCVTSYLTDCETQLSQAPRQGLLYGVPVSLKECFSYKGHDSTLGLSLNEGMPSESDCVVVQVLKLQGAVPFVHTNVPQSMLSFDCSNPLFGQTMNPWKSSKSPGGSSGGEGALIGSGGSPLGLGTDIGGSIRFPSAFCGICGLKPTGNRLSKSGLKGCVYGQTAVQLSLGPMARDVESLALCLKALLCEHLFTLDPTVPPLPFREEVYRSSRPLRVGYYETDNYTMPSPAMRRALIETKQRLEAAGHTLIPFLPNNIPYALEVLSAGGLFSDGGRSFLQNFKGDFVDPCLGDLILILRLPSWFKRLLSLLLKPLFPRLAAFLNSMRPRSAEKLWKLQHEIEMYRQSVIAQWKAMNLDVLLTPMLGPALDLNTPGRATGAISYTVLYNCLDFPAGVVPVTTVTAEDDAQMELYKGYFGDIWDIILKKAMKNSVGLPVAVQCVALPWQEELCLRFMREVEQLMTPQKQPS

IC50: 230 nM
Structure (SMILES): COc1nn(-c2ccc(Oc3ccccc3)cc2C(F)(F)F)c(=O)o1
